Patent US20250122160A1, “PROTEIN TYROSINE PHOSPHATASE INHIBITORS AND METHODS OF USE THEREOF” (Calico Life Sciences LLC, priority 0001, published 2025)

Tests used:
[1] = biological target: T1, His tagged full-length PTPN1 protein (Homo sapiens, UniProt P18031); assay: Mobility shift assay (MSA) to determine potency of PTPN1 inhibitors; type: biochemical; details: 0.5 nM enzyme, 2 μM substrate
T1 construct: made in house
T1 sequence (P18031 with tags, fused parts or gaps): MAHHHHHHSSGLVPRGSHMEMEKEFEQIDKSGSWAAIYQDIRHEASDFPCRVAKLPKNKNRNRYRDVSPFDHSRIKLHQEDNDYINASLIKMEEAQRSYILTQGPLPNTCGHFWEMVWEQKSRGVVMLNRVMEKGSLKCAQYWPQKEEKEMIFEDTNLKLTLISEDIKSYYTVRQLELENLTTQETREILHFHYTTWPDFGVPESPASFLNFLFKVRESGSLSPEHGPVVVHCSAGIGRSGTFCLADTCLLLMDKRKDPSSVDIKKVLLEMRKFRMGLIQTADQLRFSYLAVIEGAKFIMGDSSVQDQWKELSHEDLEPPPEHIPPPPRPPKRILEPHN
Summary of the method: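 His-tagged full-length human PTPN1 (0.5 nM) preincubated with compound 10 min at room temperature in pH 7.5 HEPES buffer with EGTA, EDTA, Tween 20 and DTT. Dephosphorylation of 2 μM fluorescent phospho-insulin-receptor peptide over 10 min measured by mobility shift. IC50 from % inhibition across a 12-point, 1:3 dilution series.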

[2] = tested on: Granzyme B+ cells within CD8+ T cells; assay: Granzyme B staining of CD8 T cells flow cytometry assay in mouse spleen; type: in vivo; details: day 8 of dosing
Procedure: Mice were sacrificed on day 8 of dosing with Compound 118 (2 hours after the 16th dose) and spleens were excised. Spleens were dissociated with a gentleMACS dissociator (Miltenyi Biotec. Bergisch Gladbach. Germany), red blood cells lysed, and single cell suspensions were prepared. Splenocytes were stained with Zombie UV™ Fixable Viability kit (Biolegend. San Diego, CA) diluted in Dulbecco's PBS for 10 minutes at room temperature to exclude dead cells followed by staining for surface markers for 45 minutes on ice using the following flow cytometry antibodies diluted in autoMACS Running Buffer (Miltenyi Biotec. Bergisch Gladbach, Germany); Brilliant Violet 510)-labeled anti-CD45. Brilliant Ultraviolet 395-labeled anti-CD3. Brilliant Violet 786-labeled anti-CD4. APC/Cy7-labeled anti-CD8. Cells were washed twice with autoMACS Running Buffer, permeabilized with Fixation/Permeabilization buffer (FoxP3/Transcription Factor Staining Buffer Set; eBioscience) and stained intracellularly with PE-labeled anti-Granzyme B antibody diluted in Permeabilization buffer (FoxP3/Transcription Factor Staining Buffer Set; eBioscience, San Diego, CA) for 1 hour on ice. After staining, cells were washed twice with autoMACS Running Buffer, and the samples were acquired on a BD LSRFortessa™ X20 flow cytometers (BD Biosciences, San Jose, CA) and analyzed with FLowJo V10 software (FlowJo, Ashland, OR). […]

[3] = tested on: MC-38 murine colon adenocarcinoma; assay: In vivo efficacy in MC38 mouse tumor model
Procedure: All experiments were conducted in compliance with AbbVie's Institutional Animal Care and Use Committee and the National Institutes of Health Guide for Care and Use of Laboratory Animals guidelines in a facility accredited by the Association for the Assessment and Accreditation of Laboratory Animal Care. C57Bl/6 female mice were obtained from Charles River (Wilmington, MA). The mice were group-housed 10 per cage. Food and water were available ad libitum. Animals were acclimated to the animal facilities for a period of at least one week prior to commencement of experiments. Animals were tested in the light phase of a 12-hour light:12-hour dark schedule (lights on 0600 hours).
Cells were grown to passage 3 in vitro. A total of 1×10^5 viable MC-38 cells were inoculated subcutaneously into the right flank of female C57Bl/6 mice (7-12 weeks old) on Day 0. […] Tumor volume was calculated three times weekly. Measurements of the length (L) and width (W) of the tumor were taken via electronic caliper and the volume was calculated according to the following equation: V=L×W^2/2 using Study Director Version 3.1.399.22 (Studylog Systems, Inc, CA, USA). […] Tumor growth inhibition (TGI) was calculated as TGI=1−(Mean TVTimepoint(Treatment)/Mean TVTimepoint(Vehicle)) for each timepoint that tumor volumes were measured. […]

[4] = tested on: IP10; assay: Cytokine measurement in mouse plasma (IP10); type: in vivo; details: day 8 of dosing
Procedure: Whole blood was drawn into EDTA powder coated tubes by cardiac puncture from mice on day 8 of dosing with Compound 118 (2 hours after the 16th dose) and plasma was prepared by centrifugation. Cytokines in plasma were measured using the Th1/Th2 Cytokine & Chemokine 20-Plex Mouse ProcartaPlex™ Panel 1 (Invitrogen, Carlsbad, CA). IP10 levels (pg/mL) in vehicle or Compound 118 treated animals were reported.

[5] = tested on: pSTAT5 in CD3+ T cells; assay: pSTAT5 flow cytometry assay in mouse whole blood; type: in vivo; details: day 8 of dosing
Procedure: Whole blood was drawn into EDTA powder coated tubes by cardiac puncture from mice on day 8 of dosing with Compound 118 (2 hours after the 16th dose). 90 μL of whole blood were stimulated with 10 μL of murine IL-2 to achieve a final concentration of 100 ng IL-2/mL (R&D Systems. Minneapolis, MN, cat #402-ML) for 20 minutes at 37° C. 5% CO2. After stimulation. 1.8 mL of prewarmed BD Phosflow Lyse/Fix Buffer (BD Biosciences. San Jose. CA) was added for 20 minutes at 37° C. Cells were washed twice in FACS buffer (Dulbecco's PBS with 0.2% BSA) and incubated for 30 minutes on ice in cold Perm Buffer III (BD Biosciences. San Jose. CA). Cells were washed with FACS buffer and resuspended in 50 μL of FACS buffer with antibodies and stained for 3 hours at room temperature with gentle shaking. […] After staining, cells were washed twice with FACS buffer, and the samples were acquired on a BD LSRFortessa™ X20 flow cytometers (BD Biosciences. San Jose, CA) and analyzed with FLowJo V10 software (FlowJo, Ashland, OR). The mean fluorescence intensity (MFI) of pSTAT5 as a measure of the amount of phosphorylated STAT5 in the CD3+ T cell population from vehicle or Compound 118 treated animals was reported.

[6] = tested on: B16F10 mouse melanoma cells; assay: B16F10 IFNγ-induced cellular growth inhibition assay; type: cell-based; details: B16-F10, with 0.5 ng/ml IFNγ, read-out: B16F10 GI IC50
Procedure: B16F10 mouse melanoma cells (ATCC Cat #CRL-6475, Manassas, VA) were seeded at a density of 500 cells per well in a 384-well clear bottom plate (Corning Cat #3765, Corning, NY) in 25 μL total volume of DMEM+10% FBS (Sigma Cat #D6429 and Sigma Cat #F4135, St. Louis, MO). Cells were allowed to adhere overnight at 37° C.+5% CO2. On the following day, 12.5 μL of mouse IFNγ (RD systems Cat #485-MI/CF, Minneapolis, MN) was added to half of the plate (columns 13-24) at a concentration of 2 ng/ml for a final assay concentration of 0.5 ng/ml of IFNγ. Media only (12.5 μL of DMEM+10% FBS) was added to the remainder of the plate (columns 1-12). Next, compounds resuspended in DMSO (Sigma Cat #D2650) at 100 mM were diluted in semi-log dilutions in DMSO ranging from 100 mM to 0.001 mM and DMSO only controls were included. The compound/DMSO dilutions were further diluted 1:250 in DMEM+10% FBS, and 12.5 μL of these dilutions were added in triplicates to cells of both treatment arms (with and without IFNγ). Final compound concentrations ranged from 100 μM to 0.001 μM with a final DMSO concentration of 0.1%. […] Confluence over time for compound dilutions in the presence and absence of IFNγ was measured. […] At these time points, for each compound the percent growth inhibition at every compound dose level was calculated relative to the “DMSO/with IFNγ” control and used to determine the IC50.

[7] = biological target: T2, His tagged PTPN2 (TC45) protein (Homo sapiens, UniProt P17706); assay: Mobility shift assay (MSA) to determine potency of PTPN2 inhibitors; type: biochemical; details: 0.5 nM enzyme, 2 μM substrate
T2 construct: made in house
T2 sequence (P17706 with tags, fused parts or gaps isoform P17706-2): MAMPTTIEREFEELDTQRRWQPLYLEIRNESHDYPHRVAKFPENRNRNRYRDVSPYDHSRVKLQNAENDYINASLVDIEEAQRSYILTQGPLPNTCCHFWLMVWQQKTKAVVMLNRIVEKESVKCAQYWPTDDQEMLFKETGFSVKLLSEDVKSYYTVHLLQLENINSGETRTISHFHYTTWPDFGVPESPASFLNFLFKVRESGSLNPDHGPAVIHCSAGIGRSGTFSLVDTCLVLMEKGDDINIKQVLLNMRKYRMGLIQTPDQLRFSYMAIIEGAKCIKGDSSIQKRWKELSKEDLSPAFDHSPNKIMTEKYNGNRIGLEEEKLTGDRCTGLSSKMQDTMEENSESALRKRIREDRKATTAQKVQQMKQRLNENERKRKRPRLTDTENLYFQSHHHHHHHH
Summary of the method: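 His-tagged human PTPN2 (TC45), 0.5 nM, preincubated 10 min at room temperature with compound (12-point, 1:3 dilutions) in HEPES pH 7.5 buffer with EGTA, EDTA, Tween 20 and DTT. Then 2 μM OG488-labelled phospho-insulin-receptor peptide was added for 10 min and quenched. % conversion was read by mobility shift, and IC50 came from % inhibition.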

SMILES	IC50 [1] [µM]	frequency of granzyme B producing cells within CD8+ T population in spleen, fold higher than vehicle control [2] [fold]	tolerability ([3]; 10 mg/kg/dose oral BID for 21 days)	tumor response observed ([3]; within 7-10 days of treatment)	IP10 levels in plasma, fold higher than vehicle control [4] [fold]	pSTAT5 levels in whole blood T cells, fold higher than vehicle control [5] [fold]	IC50 [6] [µM]	IC50 [7] [µM]
CC(C)CCN[C@@H]1CCc2cc(O)c(N3CC(=O)NS3(=O)=O)c(F)c2C1 (single isomer, unassigned) [Compound 118]	0.001 to 0.01	3.9	well tolerated, without obvious adverse health events	apparent tumor stasis and shrinkage	1.7	1.6	–	–
CC(C)(C)O[C@H]1C[C@@H](CCNC2CCc3cc(O)c(N4CC(=O)NS4(=O)=O)c(F)c3C2)C1 (stereo partly drawn) [Compound 234]	0.001 to 0.01	–	–	–	–	–	1 to 10	0.01 to 0.1
